According to ChEMBL document CHEMBL4616726, “Optimization of the Linker Domain in a Dimeric Compound that Degrades an r(CUG) Repeat Expansion in Cells” (J Med Chem, 2020):
Values belong to the compound of their own block, whether it stands above or below them. Calls of active or inactive are those of the source. The calls are words filed in the database; no cut-off is given here.

Legend:
[1] = Toxicity in human DM1-patient derived myotubes at 5 uM
[2] = Drug localization in cytoplasm of human DM1-patient derived myotubes by live-cell fluorescence microscopy; assay type: ADME, subcellular
r(CUG) repeat expansion [3] = test: Induction of 5'-biotinylated r(CUG)12 RNA repeat (unknown origin) degradation assessed as disruption of r(CUG)12-MBNL1 complex formation incubated for 15 mins by TR-FRET assay; assay type: nucleic-acid assay
r(CUG) repeat expansion [4] = test: Induction of r(CUG)exp RNA repeat in human DM1-patient derived myotubes assessed as improvement in MBNL1 exon 5 splicing defect at 5 uM by RT-qPCR analysis relative to control; assay type: nucleic-acid assay
[5] = Drug uptake in human DM1-patient derived myotubes by fluorescence based assay; assay type: ADME; conditions: in vitro
r(CUG) repeat expansion [6] = test: Induction of r(CUG)exp RNA repeat in human DM1-patient derived myotubes assessed as reduction in number of foci containing r(CUG)exp-MBNL1 foci at 5 uM by RNA fluorescence in situ hybridization assay; assay type: nucleic-acid assay
r(CUG) repeat expansion [7] = test: Binding affinity to r(CUG)12 RNA repeat (unknown origin) by fluorescence based assay; assay type: nucleic-acid assay
[8] = Drug localization in nucleus of human DM1-patient derived myotubes by live-cell fluorescence microscopy; assay type: ADME, subcellular
r(CUG) repeat expansion [9] = test: Induction of r(CUG)exp RNA repeat in human DM1-patient derived myotubes assessed as reduction in number of foci containing r(CUG)exp-MBNL1 foci at 5 uM by immunofluorescence assay; assay type: nucleic-acid assay
r(CUG) repeat expansion [10] = test: Binding affinity to r(CUG)8 RNA repeat (unknown origin) by fluorescence based assay; assay type: nucleic-acid assay
r(CUG) repeat expansion [11] = test: Induction of DMPK mRNA 3'-UTR r(CUG)1300 repeat degradation in human DM1 patient-derived myotubes at 5 uM by RT-qPCR analysis relative to control; assay type: nucleic-acid assay

Drug uptake [2]: Active
Activity (r(CUG) repeat expansion [3]): Active
Activity (r(CUG) repeat expansion [4]): inactive
Drug uptake [5]: Active
Structure (SMILES): CN1CCN(c2ccc3[nH]c(-c4ccc5[nH]c(-c6cccc(OCCCC(=O)N(C)CCCCN(CC(N)=O)C(=O)[C@@H]7C[C@@H](O)CN7C(=O)[C@@H]7C[C@@H](O)CN7C(=O)[C@@H]7C[C@@H](O)CN7C(=O)[C@@H]7C[C@@H](O)CN7C(=O)CCCOc7cccc(-c8nc9ccc(-c%10nc%11ccc(N%12CCN(C)CC%12)cc%11[nH]%10)cc9[nH]8)c7)c6)nc5c4)nc3c2)CC1

Activity (r(CUG) repeat expansion [6]): Active
EC50 (r(CUG) repeat expansion [7]): 280 nM
Activity (r(CUG) repeat expansion [3]): Active
Activity (r(CUG) repeat expansion [4]): 30%
Drug uptake [8]: Active
Drug uptake [5]: Active
Activity (r(CUG) repeat expansion [9]): Active
EC50 (r(CUG) repeat expansion [10]): > 10000 nM
Structure (SMILES): C[C@@H](C(=O)N(C)[C@@H](C)C(=O)N(C)[C@@H](C)C(=O)N(C)[C@@H](C)C(=O)N(CCCCN(C)C(=O)CCCOc1cccc(-c2nc3cc(-c4nc5cc(N6CCN(C)CC6)ccc5[nH]4)ccc3[nH]2)c1)CC(N)=O)N(C)C(=O)CCCOc1cccc(-c2nc3ccc(-c4nc5ccc(N6CCN(C)CC6)cc5[nH]4)cc3[nH]2)c1

Activity (r(CUG) repeat expansion [11]): 30%
Structure (SMILES): CC(=O)O[C@H]1[C@H](O)[C@H](O[C@@H]2[C@H](O[C@H](c3cnc[nH]3)[C@@H](NC(=O)c3nc([C@@H](CC(N)=O)NC[C@@H](N)C(N)=O)nc(N)c3C)C(=O)N[C@@H](C)[C@H](O)[C@@H](C)C(=O)N[C@H](C(=O)NCCc3nc(-c4nc(C(=O)NCCCNCCCCNC(=O)CCCCCCC(=O)N(CCN(C)C(=O)CCCOc5cccc(-c6nc7ccc(-c8nc9ccc(N%10CCN(C)CC%10)cc9[nH]8)cc7[nH]6)c5)CC(=O)N(C)[C@@H](C)C(=O)N(C)[C@@H](C)C(=O)N(C)[C@@H](C)C(=O)N(CCCCN(C)C(=O)CCCOc5cccc(-c6nc7ccc(-c8nc9ccc(N%10CCN(C)CC%10)cc9[nH]8)cc7[nH]6)c5)CC(N)=O)cs4)cs3)[C@H](C)O)O[C@@H](CO)[C@H](O)[C@H]2O)O[C@@H](CO)[C@@H]1O

Drug uptake [2]: Active
Activity (r(CUG) repeat expansion [3]): Active
Activity (r(CUG) repeat expansion [4]): inactive
Drug uptake [8]: Active
Structure (SMILES): C[C@@H](NC(=O)CCCOc1cccc(-c2nc3ccc(-c4nc5ccc(N6CCN(C)CC6)cc5[nH]4)cc3[nH]2)c1)C(=O)N[C@H](C)C(=O)N[C@H](C)C(=O)N[C@H](C)C(=O)N(CCCCN(C)C(=O)CCCOc1cccc(-c2nc3cc(-c4nc5cc(N6CCN(C)CC6)ccc5[nH]4)ccc3[nH]2)c1)CC(N)=O

Continued, compound first:

Structure (SMILES): CN1CCN(c2ccc3[nH]c(-c4ccc5[nH]c(-c6cccc(OCCCC(=O)N(C)CCCCN(CC(N)=O)C(=O)[C@H](Cc7ccc(O)cc7)NC(=O)[C@H](Cc7ccc(O)cc7)NC(=O)[C@H](Cc7ccc(O)cc7)NC(=O)[C@H](Cc7ccc(O)cc7)NC(=O)CCCOc7cccc(-c8nc9ccc(-c%10nc%11ccc(N%12CCN(C)CC%12)cc%11[nH]%10)cc9[nH]8)c7)c6)nc5c4)nc3c2)CC1
Activity [1]: Toxic

Structure (SMILES): CN1CCN(c2ccc3[nH]c(-c4ccc5[nH]c(-c6cccc(OCCCC(=O)N(C)CCCCN(CC(N)=O)C(=O)[C@@H]7CCCN7C(=O)[C@@H]7CCCN7C(=O)[C@@H]7CCCN7C(=O)[C@@H]7CCCN7C(=O)CCCOc7cccc(-c8nc9ccc(-c%10nc%11ccc(N%12CCN(C)CC%12)cc%11[nH]%10)cc9[nH]8)c7)c6)nc5c4)nc3c2)CC1
Activity (r(CUG) repeat expansion [3]): Active

Structure (SMILES): CN1CCN(c2ccc3[nH]c(-c4ccc5[nH]c(-c6cccc(OCCCC(=O)N(C)CCCCN(CC(N)=O)C(=O)[C@@H]7CCCN7C(=O)[C@@H]7CCCN7C(=O)[C@@H]7CCCN7C(=O)[C@@H]7CCCN7C(=O)[C@@H]7CCCN7C(=O)CCCOc7cccc(-c8nc9cc(-c%10nc%11cc(N%12CCN(C)CC%12)ccc%11[nH]%10)ccc9[nH]8)c7)c6)nc5c4)nc3c2)CC1
Activity (r(CUG) repeat expansion [3]): Active
